In ChEMBL document CHEMBL4425174, “Design, synthesis and optimization of novel Alk5 (activin-like kinase 5) inhibitors” (Bioorg Med Chem Lett, 2016):

Experiment: Oral bioavailability in rat
Type: ADME, organism-based
Details: in vivo

Compound: Fc1cc(F)c(-c2cc(Nc3ccncc3)c3cc[nH]c3n2)cc1Cl
- bioavailability: 13%

Compound: C[C@H](O)CNC(=O)c1cnccc1Nc1cc(-c2cc(Cl)ccc2F)nc2[nH]ccc12
- bioavailability: 17%

Compound: Cc1cnc(-c2cc(Cl)ccc2F)cc1-n1c(=O)n(CC(N)=O)c2cnccc21 [TP-008]
- bioavailability: 62%

Compound: Fc1ccc(-c2cc(Nc3ccncc3)c3cc[nH]c3n2)c(F)c1
- bioavailability: 65%
